Source: patent US20250057873A1, “Intestinal Tumor Suppressor, PGE2 Production Inhibitor, and IL-22BP Production Promoter” (TOKYO UNIVERSITY OF SCIENCE FOUNDATION, priority 2021, published 2025)

Assays:
COX-2 = target: T1, COX-2 (Homo sapiens, UniProt P35354); settings: cited from earlier work
T1 sequence (P35354 18-604): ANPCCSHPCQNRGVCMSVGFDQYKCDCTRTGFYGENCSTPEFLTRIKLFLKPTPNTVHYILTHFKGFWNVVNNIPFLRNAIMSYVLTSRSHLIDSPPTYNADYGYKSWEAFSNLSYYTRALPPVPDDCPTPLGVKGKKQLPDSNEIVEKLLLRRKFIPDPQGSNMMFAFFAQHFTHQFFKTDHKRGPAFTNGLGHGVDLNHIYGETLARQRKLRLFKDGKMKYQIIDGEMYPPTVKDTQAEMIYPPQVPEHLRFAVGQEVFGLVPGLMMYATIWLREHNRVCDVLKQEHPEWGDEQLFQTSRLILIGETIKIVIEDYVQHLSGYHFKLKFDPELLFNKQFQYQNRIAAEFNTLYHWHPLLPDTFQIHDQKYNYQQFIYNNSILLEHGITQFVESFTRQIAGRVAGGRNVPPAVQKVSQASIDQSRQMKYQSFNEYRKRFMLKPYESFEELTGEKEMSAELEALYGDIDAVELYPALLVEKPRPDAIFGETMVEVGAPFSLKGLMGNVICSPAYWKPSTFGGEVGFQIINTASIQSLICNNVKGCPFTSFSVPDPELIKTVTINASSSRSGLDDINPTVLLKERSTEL

colorectal polyps = experiment: PGE2 administration to DSS-treated Apc^Min/+Clec7a^-/- mice; format: in vivo, mouse
Method: FIG. 6e: 8-week-old Apc^Min/+Clec7a^−/− mice (n=3) were administered with 2% by mass of DSS for 1 week, and then were administered with PGE2 ([…]) or PBS intraperitoneally every other day for 4 weeks. After euthanization, generation of colorectal polyps in the Apc^Min/+Clec7a^−/− mice with or without PGE2 treatment was examined in comparison to that of the Apc^Min/+ mice (n=3/group).
FIG. 6f: 8-week-old Apc^Min/+Clec7a^−/− mice (n=3) were administered with 2% by mass of DSS for 1 week, and then were administered with PGE2 ([…]) or PBS intraperitoneally every other day for 4 weeks. After euthanization, generation of colorectal polyps in the Apc^Min/+Clec7a^−/− mice with or without the PGE2 treatment was examined in comparison to that of the Apc^Min/+ mice (n=3/group).
FIG. 6g: 8-week-old Apc^Min/+Clec7a^−/− mice (n=3) were administered with 2% by mass of DSS for 1 week, and then were administered with PGE2 ([…]) or PBS intraperitoneally every other day for 4 weeks. After euthanization, populations of MHC-II^+CD11c^+DCs and MHC-II^−CD11b^+MDSCs in the polyps in the Apc^Min/+Clec7a^−/− mice were measured by flow cytometry (n=3/group).
FIG. 6h: 8-week-old Apc^Min/+Clec7a^−/− mice (n=3) were administered with 2% by mass of DSS for 1 week, and then administered with PGE2 ([…]) or PBS intraperitoneally every other day for 4 weeks. After euthanization, expression of indicated genes in the Apc^Min/+Clec7a^−/− mice was examined by qPCR (n=3/group).
Apc^Min/+ or Apc^Min/+Clec7a^−/− mice were normally raised in SPF condition for 19 to 21 weeks after being born, and polyps in small intestines emerged spontaneously. For the induction of colorectal tumor, same mice with 6 to 7 weeks old were treated with 1% by mass DSS for 1 week, and then were normally raised for another 4 to 5 weeks before sacrifice.

[1] = test system: intestinal polyp-infiltrating cells; experiment: PGE2 stimulation of intestinal polyp-infiltrating cells of Apc^Min/+ mice, qPCR; format: cell-based, mouse; settings: PGE2 20 hours
Method: FIG. 6i: Tumor-infiltrating cells of the Apc^Min/+ mice (n=2, cells that were pooled during collection) were collected, stimulated with indicated doses of PGE2 for 20 hours, and then the expression of indicated genes was measured by qPCR. The data are mean±SD of 3 wells.
(§1) Infiltrating cells in mouse/human colorectal tumor/non-tumor tissues (2×10^5) or mouse/human colorectal tumor/non-tumor tissue pieces (3 mm×3 mm cut) were cultured with Dectin-1 ligands Curdlan, OXCA, or laminarin, or with PGE2 stimulation for 20 h at 37° C. under 5% CO2 in 96-well flat-bottomed plates (Falcon, Becton Dickinson) in a volume of 0.2 ml RPMI containing 10% FBS and 1% streptomycin plus penicillin. After the culture, cells or tissues were collected and mRNA expression of tumor- or anti-tumor-associated genes was measured by qPCR described in Quantitative reverse transcription PCR section described later.
(§2) Total RNA was extracted with Mammalian Total RNA Miniprep kit (Sigma Aldrich). […]

CRC tumor tissues = experiment: Human CRC tumor tissues cultured in the presence of PGE2, qPCR; format: cell-based
Method: FIG. 7i: Tumor tissues of CRC patients were collected, minced, and then cultured in the presence of PGE2 for 20 hours. Data are mean±SD of 3 wells. The data in (FIGS. 7g to 7i) are representative of two independent experiments. *p<0.05, **p<0.01, and ****p<0.0001.
as §1, §2

Dectin-1 [2] = target: T2, Dectin-1 (Mus musculus, UniProt Q6QLQ4); experiment: Stimulation of mouse colorectal polyp CD11b+ and CD11c+ cells with OXCA, with or without laminarin pre-treatment, qPCR; format: cell-based; settings: laminarin for 3 hours before OXCA 16 hours
T2 construct: CD11b^+ cells and CD11c^+ cells were purified from colorectal polyps with autoMACS; endogenous in cells; host or cells: primary CD11b+/CD11c+ cells or all polyp-infiltrating cells from colorectal/intestinal polyps of WT (C57BL/6J, AOM-DSS) or Apc^Min/+ mice
T2 sequence (Q6QLQ4 1-244): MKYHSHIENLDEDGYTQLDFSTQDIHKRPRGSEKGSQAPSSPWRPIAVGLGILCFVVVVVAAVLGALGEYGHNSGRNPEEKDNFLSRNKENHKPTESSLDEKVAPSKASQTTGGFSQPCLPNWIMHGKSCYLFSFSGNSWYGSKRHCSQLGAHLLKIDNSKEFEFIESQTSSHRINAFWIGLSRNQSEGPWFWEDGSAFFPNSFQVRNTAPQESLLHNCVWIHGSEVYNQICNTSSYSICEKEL
Method: FIG. 2d: WT SPF mice were administered with AOM, followed by three cycles of DSS. After 11 weeks, the mice were sacrificed, and CD11b^+ cells and CD11c^+ cells were purified from colorectal polyps with autoMACS. The purified cells were stimulated with an agonistic β-glucan OXCA, or were treated with an antagonistic β-glucan laminarin for 3 hours followed by the stimulation with OXCA for 16 hours, and the expression of Il6 and Il1b was measured by qPCR. The data in (FIGS. 2a to 2d) are representative of two independent experiments, and the data in (FIGS. 2a, 2b, and 2d) are expressed as mean±SD. *p<0.05, **p<0.01, ***p<0.001, and ****p<0.0001.
FIG. 4h: C57BL/6J mice were administered with AOM, and were administered with DSS for three cycles. […] The cells were then stimulated with OXCA and expression of Il-22 bp was measured by qPCR. […] The data in (FIG. 4a and FIGS. 4d to 4h) are representative of two independent experiments, and the data in (FIGS. 4a, 4d, and 4f to 4h) are expressed as mean±SD. **p<0.01, ***p<0.001, and ****p<0.0001.
FIG. 11d: WT mice administered with AOM followed by DSS for three cycles for 12 weeks were sacrificed, and colon CD11b^+ and CD11c^+ myeloid-derived cells were purified by autoMACS. […] The data in (FIGS. 11a, 11c, and 11d) are expressed as mean±SD. *p<0.05, **p<0.01, and ***p<0.001. […]

Dectin-1 [3] = target: T2, Dectin-1; experiment: Stimulation of Apc^Min/+ polyp-infiltrating leukocytes / CD11b+ cells with Curdlan, with or without laminarin pre-treatment, qPCR; format: cell-based; settings: laminarin 4 hours before Curdlan, polyp-infiltrating leukocytes
Method: FIG. 5f: All polyp-infiltrating cells of the Apc^Min/+ mice were collected, and were stimulated with Curdlan for 20 hours, and then the expression of the genes involved in the PGE2 synthesis was measured by qPCR. A laminarin treatment was performed for 4 hours before the Curdlan treatment.
FIG. 5g: Purified CD11b^+ polyp-infiltrating cells of the Apc^Min/+ mice were collected, and were stimulated with Curdlan for 20 hours, and then the expression of the genes involved in the PGE2 synthesis was measured by qPCR. A laminarin treatment was performed for 4 hours before the Curdlan treatment. The data in (FIGS. 5a to 5g) are representative of two independent experiments and expressed as mean±SD. *p<0.05, **p<0.01, and ***p<0.001.
as §1, with “later. […]” for “later.”

[4] = test system: AOM-DSS-induced colorectal polyps; experiment: AOM-3DSS colorectal tumor model, diet supplemented with 5% laminarin; format: in vivo, mouse
Method: FIG. 6a: Oral administration of laminarin suppresses tumor formation in the large intestine, and PGE2 administration promotes tumor formation. AOM was administered to C57BL/6J mice, and 5% by mass of laminarin-containing powdered food was administered (continued for 10 days/cycle) from 3 days before to the end of the one-week administration of DSS, for three cycles in total. At Week 11 from the first AOM administration, the mice were sacrificed and the generation of tumors in the large intestines was observed macroscopically (n=7/group).
FIG. 6b: AOM was administered to C57BL/6J mice, and 5% by mass of laminarin-containing powdered food was administered (continued for 10 days/cycle) from 3 days before to the end of the one-week administration of DSS, for three cycles in total. At Week 11 from the first AOM administration, the mice were sacrificed and the number of the colorectal polyps with indicated sizes was counted (n=7/group).
FIG. 6c: AOM was administered to C57BL/6J mice, and 5% by mass of laminarin-containing powdered food was administered (continued for 10 days/cycle) from 3 days before to the end of the one-week administration of DSS, for three cycles in total. The mice were sacrificed at Week 11 after the first AOM administration and the concentration of PGE2 in tissue homogenates was measured by the ELISA (n=7/group).
FIG. 6d: AOM was administered to C57BL/6J mice, and 5% by mass of laminarin-containing powdered food was administered (continued for 10 days/cycle) from 3 days before to the end of the one-week administration of DSS, for three cycles in total. The mice were sacrificed at Week 11 from the first AOM administration and an mRNA expression of CD11b (Itgam) was examined by qPCR (n=7/group). […]
Polyp and non-polyp tissues from mouse colon were harvested and were put into 2 ml tubes containing 500 μl lysis buffer for protein [RIPA buffer. […] After being centrifuged, supernatant of the tissue homogenate was collected and PGE2 concentration was measured by ELISA Development Kit for PGE2 (R&D systems, Minneapolis, USA). […]

[5] = after PGE2 administration, flow cytometry
[6] = after PGE2 administration, qPCR

CC(=O)Oc1ccccc1C(=O)O [aspirin]
occurrence or progression of colorectal cancer and polyps (COX-2): can reduce

CCCCC[C@H](O)/C=C/[C@H]1[C@H](O)CC(=O)[C@@H]1C/C=C\CCCC(=O)O [PGE2, prostaglandin E2]
polyp number (colorectal polyps; PGE2 intraperitoneally every other day for 4 weeks, DSS-treated Apc^Min/+Clec7a^-/- mice): increased to the similar level of that in Apc^Min/+ mice
infiltration of CD11b+ MDSCs in polyps (colorectal polyps; [5]): promoted
infiltration of CD11c+ DCs and T cells in polyps (colorectal polyps; [5]): suppressed
Il-22 bp expression (colorectal polyps; [6]): suppressed
expression of CD11b (Itgam), Arginase-1 (Arg1), Cyclin D1 (Ccnd1) and c-Myc (Myc) (colorectal polyps; [6]): enhanced
Il-22 bp expression [1]: directly inhibited
expression of MDSC markers Arg1, CD11b and Nos2 [1]: directly induced
expression of CD33 and CD11B (ITGAM) (CRC tumor tissues; PGE2 20 hours in vitro): directly induced
human IL-22BP expression (CRC tumor tissues; PGE2 20 hours, dose-dependent): suppressed

Laminarin
effect on OXCA-induced Il6 and Il1b expression (Dectin-1 [2]): inhibited
effect on Curdlan-induced Ptges3, Ptgs1 and Ptgs2 expression (Dectin-1 [3]): inhibited
burden of colorectal polyps versus control mice ([4]; 5% laminarin diet during 3 cycles of DSS, WT mice, AOM-3DSS): significantly lower
intestinal PGE2 production (tissue homogenate, ELISA) ([4]; 5% laminarin diet, AOM-3DSS mice): suppressed
CD11b (Itgam) expression ([4]; 5% laminarin diet, AOM-3DSS mice, qPCR): reduction
